# Data: patent US20140378408A1, “NUCLEOSIDE 5'-PHOSPHOROTHIOATE ANALOGUES AND USES THEREOF” (BAR-ILAN UNIVERSITY, an Israeli University, priority 2012, published 2014)
# Like-named read-outs stand apart in the source and are kept apart here.
# Key:
# cortical neurons = assay: Neuroprotection of cultured cortical neurons exposed to FeSO4 or FeSO4/H2O2; type: cell-based; settings: Table 2, neuroprotection of primary neurons exposed to FeSO4, read-out: IC50
# Procedure: FIGS. 10A-10B show the neuroprotective effect of ATP-γ-S and GDP-β-S (0.2-200 μM, t=24 h) as evaluated by MTT production in cortical neurons exposed for 24 h to either FeSO4 at final concentration of 3 μM (10A); or both FeSO4 (3 μM) and H2O2 (100 μM) (10B). The results shown are the mean±SEM of three independent experiments in quadruplicate.
# Cultured cortical neurons in 96-well plates were treated with different concentrations of FeSO4, or hydrogen peroxide and FeSO4, for 24 h at 37° C. Following exposure to various insults, the cells were treated with ATP-γ-S and GDP-β-S as described. Cells were subsequently incubated for a further 18-24 h as indicated before being assessed for viability measures. Neurons were treated with ATP-γ-S and GDP-β-S at three concentrations ([…]) simultaneously with 1.5, 3 or 6 μM FeSO4 for 24 h. Following 24 h incubation in the presence of both FeSO4 and ATP-γ-S and GDP-β-S cell viability measures were assessed by XTT assay. All experiments were performed in triplicate.
# FeSO4 induced a concentration-dependent decrease in cell viability as assessed by XTT assay and morphological assessment following 24 h of exposure (FIG. 9). The neuroprotective effect of ATP-γ-S and GDP-β-S (due to iron chelation) was evaluated in cortical neurons exposed to FeSO4 for 24 h (FIG. 10).
# Aβ28-Cu^+ complex = molecular target: T1, Aβ28-Cu^+ complex (Homo sapiens, UniProt P05067); assay: Titration of Aβ28-Cu^+ complex by chelators monitored by 1H-NMR; settings: 0.8 mM Aβ28-Cu^+, pD 7; for effect on Aβ28-Cu^+ 1H-NMR spectrum: 6 eq chelator
# T1 construct: we first studied Aβ28, as a more soluble fragment of Aβ40; purchased Sigma-Aldrich
# T1 sequence (P05067 672-699 limits assumed, one chain of several): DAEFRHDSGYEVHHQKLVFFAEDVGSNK
# PC12 cells = assay: Inhibition of Fe(II)-induced ROS formation in PC12 cells (DCFH-DA); type: cell-based; settings: PC12 cells, FeSO4 0.16 μM, 1 h, DCFH-DA; read-out: IC50 inhibition of ROS formation
# Procedure: In this study, nucleoside 5′-phosphorothioate analogues were explored as inhibitors of Fe(II)-induced oxidative stress in PC12 cells used as a neuronal model. Reduction of ROS production in PC12 cells by each one of the tested analogues was measured by DCFH-DA, a radical sensitive indicator. After DCFH-DA was removed, the tested analogue was added to the cells at a final concentration of 0.2-200 μM. Oxidation was initiated by the addition of FeSO4 (0.16 μM) to the wells. The plates were incubated for 1 h at 37° C., during which the absorbance was read by a Tecan fluorometer at 485/530 nm.
structure (smiles),measurement,setting,value
"Nc1nc2c(ncn2[C@@H]2O[C@H](COP(=O)(O)OP(=O)(O)OP(=O)(O)O)[C@@H](O)[C@H]2O)c(=O)[nH]1 [GTP, guanosine triphosphate]",IC50,cortical neurons; Cortical neurone,32 ± 2.3 µM
"[Na+].[Na+].[Na+].[O-]P([O-])([O-])=S [Thiophosphate, trisodiumthiophosphate]",effect on Aβ28-Cu^+ 1H-NMR spectrum,Aβ28-Cu^+ complex,significant sharpening of the Aβ28 spectrum
O=C(O)CC(O)(CC(=O)O)C(=O)O [Citrate],IC50,cortical neurons; Cortical neurone,25 ± 3.3 µM
"Nc1ncnc2c1ncn2[C@@H]1O[C@H](COP(=O)(O)OP(=O)(O)O)[C@@H](O)[C@H]1O [ADP, adenosine diphosphate]",IC50,cortical neurons; Cortical neurone,19 ± 1.9 µM
"Nc1nc2c(ncn2[C@@H]2O[C@H](COP(=O)(O)OP(=O)(O)O)[C@@H](O)[C@H]2O)c(=O)[nH]1 [GDP, gunosine diphosphate]",IC50,cortical neurons,21 ± 3.1 µM
"O=P([O-])([O-])OP(=O)([O-])OP(=O)([O-])[O-].[Na+].[Na+].[Na+].[Na+].[Na+] [triphosphate, sodium triphosphate]",effect on Aβ28-Cu^+ 1H-NMR spectrum,Aβ28-Cu^+ complex,showed only Phe peaks reappearances without any His signals
"Nc1nc2c(ncn2[C@@H]2O[C@H](COP(=O)(O)OP(=O)(O)OP(O)(O)=S)[C@@H](O)[C@H]2O)c(=O)[nH]1 [GTP-γ-S, guanosine 5′-[γ-thio]triphosphate]",equivalents at which the spectrum resembled that of pure Aβ28,Aβ28-Cu^+ complex,3.2 eq
same,IC50,cortical neurons,0.04 ± 0.01 µM
same,IC50,PC12 cells,5 µM
Cc1c(C)c2c(c(C)c1O)CCC(C)(C(=O)O)O2 (stereo not shown) [Trolox],IC50,cortical neurons; Cortical neurone,23 ± 3.1 µM
